The term MIC denotes the least concentration at which growth counts as inhibited.

≈ marks a conversion by molar mass, not a printed value. Where two headings read alike, the source gives them in different places.

Data set [1] has as its system Serratia marcescens IID 618. Nature of the data set: Antibacterial activity (MIC), agar plate dilution method. Type of data set: cell-based. The method, then: (§1) The antibacterial activity of the compounds of the present invention against various bacteria (inoculum size: 10^6 cells/ml) were tested by the agar plate dilution method, and the results are shown in the following Table 1.

In data set [2] the test system is Klebsiella pneumoniae IFO 3317. The description is as above. It counts as cell-based. The procedure: as §1
Data set [3] concerns Escherichia coli NIHJ JC-2. The data set is described as above. Type of data set: cell-based. The method, then: as §1
Data set [4] relates to Proteus mirabilis IFO 3849. The description is as above. Type of data set: cell-based. The procedure: as §1
The nature of another data set: in vivo. The settings on record: rat, blood, oral, 50 mg/kg, male wister rats (7 weeks old), bioassay (Escherichia coli SC507); for concentration at 4 h: Four Hours; for concentration at 1 h: One Hour; for concentration at 2 h: Two Hours. The method, then: Male wister rats (7 weeks old) were administered orally with the test compound, and the change of the concentration of the compound in blood was measured.
Dosage of the test compound:
Quantitative method: Bioassay
(test bacterium: Escherichia coli SC507)

For the compound `CNC(=O)/C=C\SC1=C(C(=O)O)N2C(=O)[C@@H](NC(=O)/C(=N\OCC(=O)O)c3csc(N)n3)[C@H]2SC1` [C], the MIC in data set [1] (IID618, Serratia marcescens IID 618, inoculum size: 10^6 cells/ml, agar plate dilution, read-out: MIC) was determined as 0.39 µg/mL (≈ 0.719 µM); in data set [2] (IFO3317, Klebsiella pneumoniae IFO 3317, inoculum size: 10^6 cells/ml, agar plate dilution, read-out: MIC), 0.05 µg/mL (≈ 0.0922 µM); in data set [3] (NIHJJC2, Escherichia coli NIHJ JC-2, inoculum size: 10^6 cells/ml, agar plate dilution, read-out: MIC) it was 0.2 µg/mL (≈ 0.369 µM); in data set [4] (IFO3849, Proteus mirabilis IFO 3849, inoculum size: 10^6 cells/ml, agar plate dilution, read-out: MIC), 0.025 µg/mL (≈ 0.0461 µM). Also, in the data set “in vivo”, the concentration at 4 h is 22400 ng/mL. This compound displayed a concentration at 1 h in the data set “in vivo” of 20800 ng/mL. In addition, the concentration at 2 h in the data set “in vivo” is 26600 ng/mL.

For the compound `CCNC(=O)/C=C\SC1=C(C(=O)[O-])N2C(=O)[C@@H](NC(=O)/C(=N\OCC(=O)[O-])c3csc(N)n3)[C@H]2SC1.[Na+].[Na+]`, the MIC in data set [1] (Serratia marcescens, IID618) is 0.39 µg/mL; in data set [2] (Klebsiella pneumoniae, IFO3317), 0.05 µg/mL; in data set [3] (Escherichia coli, NIHJJC2), 0.39 µg/mL; in data set [4] (Proteus mirabilis, IFO3849) it was 0.025 µg/mL. Besides, the concentration at 4 h in “in vivo” was found to be 24200 ng/mL. The concentration at 1 h in “in vivo” turned out to be 26800 ng/mL. The concentration at 2 h in “in vivo” is 34300 ng/mL.

In the case of `CC1=C(C(=O)O)N2C(=O)[C@@H](NC(=O)[C@H](N)c3ccccc3)[C@H]2SC1` [YY, Cefalexin, reference compound], the minimal inhibitory concentration (MIC) in data set [1] (Serratia marcescens, IID618) is more than 100 µg/mL; in data set [2] (Klebsiella pneumoniae, IFO3317), 6.25 µg/mL (≈ 18 µM); in data set [3] (Escherichia coli, NIHJJC2), 12.5 µg/mL (≈ 36 µM); in data set [4] (Proteus mirabilis, IFO3849), 12.5 µg/mL (≈ 36 µM).

Turning to `CN(C)C(=O)/C=C\SC1=C(C(=O)[O-])N2C(=O)[C@@H](NC(=O)/C(=N\OCC(=O)O)c3csc(N)n3)[C@H]2SC1.[Na+]` [A, 7β-{α-(2-aminothiazole-4-yl)-α-[(Z)-carboxymethoxyimino]acetamido}-3-[(Z)-2-N,N-dimethylaminocarbonylvinylthio]-3-cephem-4-carboxylic acid sodium salt], the MIC is 0.2 µg/mL in data set [1] (Serratia marcescens IID 618, inoculum size: 10^6 cells/ml, agar plate dilution); 0.05 µg/mL in data set [2] (Klebsiella pneumoniae IFO 3317, inoculum size: 10^6 cells/ml, agar plate dilution); 0.2 µg/mL in data set [3] (Escherichia coli NIHJ JC-2, inoculum size: 10^6 cells/ml, agar plate dilution); less than 0.025 µg/mL in data set [4] (Proteus mirabilis IFO 3849, inoculum size: 10^6 cells/ml, agar plate dilution).
